How the values were obtained:
Type in all cases: cell-based
[1] = biological target: T1, CLR/RAMP1 receptor (Homo sapiens, UniProt O60894+Q16602); test: CLR/RAMP1 cAMP assay, antagonist mode (CGRP-stimulated); details: antagonist mode
Procedure: A cell line carrying the recombinant CLR/RAMP1, CLR/RAMP2, or a CLR/RAMP3 receptor was employed in the assay. […] The CLR/RAMP1 CAMP, CLR/RAMP2 arrestin, and CLR/RAMP3 CAMP assays (DiscoveRx, Fremont, Calif.) were used.
For the analysis of antagonistic activity, synthetic analogs were pre-incubated with the cells before adding the reference ligand at its EC80. […] For the determination of antagonistic activity, cells were pre-incubated with sample followed by agonist challenge at the EC80 concentration. […] After appropriate compound incubation, assay signal was generated through incubation with 20 μL cAMP XS+ED/CL lysis cocktail for one hour followed by incubation with 20 μL cAMP XS+EA reagent for three hours at room temperature. Microplates were read following signal generation with a PerkinElmer Envision™ instrument for chemiluminescent signal detection.
For the antagonistic activity assay, percentage inhibition is calculated using the following formula: % Inhibition=100%×(1−(mean RLU of test sample−mean RLU of vehicle control)/(mean RLU of EC80 control−mean RLU of vehicle control)).

[2] = biological target: T2, CLR/RAMP2 receptor (Homo sapiens, UniProt O60895+Q16602); test: CLR/RAMP2 arrestin assay, antagonist mode (ADM-stimulated)
Procedure: A cell line carrying the recombinant CLR/RAMP1, CLR/RAMP2, or a CLR/RAMP3 receptor was employed in the assay. Peptide agonist activities were tested, in duplicate, at 10 different concentrations, starting with 1.0 μM and serially diluted 3-fold, in DMSO. […] The CLR/RAMP1 CAMP, CLR/RAMP2 arrestin, and CLR/RAMP3 CAMP assays (DiscoveRx, Fremont, Calif.) were used.
For the analysis of antagonistic activity, synthetic analogs were pre-incubated with the cells before adding the reference ligand at its EC80. […] For antagonistic activity determination, cells were pre-incubated with antagonist followed by agonist challenge at the EC80 concentration. […] Then, 5 μL of 6× EC80 agonist in assay buffer was added to the cells and incubated at 37 C or room temperature for 90 or 180 minutes.
The microplates were read following signal generation with a PerkinElmer Envision™ instrument for chemiluminescent signal detection.
% Activity=100%×(mean RLU of test sample−mean RLU of vehicle control)/(mean MAX control ligand−mean RLU of vehicle control). For antagonistic activity assays, percentage inhibition was calculated using the following formula: % Inhibition=100%×(1−(mean RLU of test sample−mean RLU of vehicle control)/(mean RLU of EC80 control−mean RLU of vehicle control)).

[3] = biological target: T1, CLR/RAMP1 receptor; test: CLR/RAMP1 cAMP receptor-activation assay (agonist mode); details: for CLR/RAMP1 Max Activity % of positive control: agonist mode, positive control β-CGRP;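 on all read-outs here: Dose–response over 10 threefold dilutions from 1.0 µM, run in duplicate, luminescent cAMP detection (RLU), activity scaled between vehicle control (0%) and maximal control (100%)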
Procedure: (§1) Using a receptor activation assay, the dose-dependent stimulatory response of peptide agonists on a CLR/RAMP1 receptor, a CLR/RAMP2, or a CLR/RAMP3 receptor complex was determined. A cell line carrying the recombinant CLR/RAMP1, CLR/RAMP2, or a CLR/RAMP3 receptor was employed in the assay. Peptide agonist activities were tested, in duplicate, at 10 different concentrations, starting with 1.0 μM and serially diluted 3-fold, in DMSO. […] The CLR/RAMP1 CAMP, CLR/RAMP2 arrestin, and CLR/RAMP3 CAMP assays (DiscoveRx, Fremont, Calif.) were used.
(§2) The pharmacology of superagonistic activity of synthetic analogs was studied in cells that stably express CLR/RAMP1 (1321N1 cells), CLR/RAMP2 (CHO-K1 cells), or CLR/RAMP3 (CHO-K1 cells) receptors.
For the analysis of Gs-coupled CAMP production, cAMP Hunter cell lines were expanded from freezer stocks, and cells were seeded in a total volume of 20 μL into white walled, 384-well microplates and incubated at 37 C for the appropriate time prior to testing. The CAMP modulation was determined using the DiscoverX HitHunter CAMP XS+ assay. For agonistic activity determination, cells were incubated with sample to induce response. Media was aspirated from cells and replaced with 15 μL 2:1 HBSS/10 mM Hepes: CAMP XS+Ab reagent. […] For Gs-coupled agonistic assays, percentage activity is calculated using the following formula: % Activity=100%×(mean RLU of test sample−mean RLU of vehicle control)/(mean RLU of MAX control−mean RLU of vehicle control).

[4] = biological target: T2, CLR/RAMP2 receptor; test: CLR/RAMP2 arrestin receptor-activation assay (agonist mode); details: for CLR/RAMP2 Max Activity % of positive control: agonist mode, positive control ADM; for receptor selectivity of agonists, in words: CLR/RAMP2 versus CLR/RAMP1;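 on all read-outs here: agonist dose-response in recombinant cell lines stably expressing each receptor complex, duplicate wells over 10 threefold dilutions from a top concentration of 1.0 µM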
Procedure: as §1, §2
For the Arrestin assays, PathHunter cell lines (Discoverx Inc.) were expanded from freezer stocks, and seeded in a total volume of 20 μL into white walled, 384-well microplates and incubated at 37 C for the appropriate time prior to testing. For agonist determination, cells were incubated with sample to induce response. […] The microplates were read following signal generation with a PerkinElmer Envision™ instrument for chemiluminescent signal detection.
The compound activity was analyzed using a CBIS data analysis suite (ChemInnovation, CA). For agonist mode assays, percentage activity was calculated using the following formula:
% Activity=100%×(mean RLU of test sample−mean RLU of vehicle control)/(mean MAX control ligand−mean RLU of vehicle control).

T2 sequence (Q16602 23-461): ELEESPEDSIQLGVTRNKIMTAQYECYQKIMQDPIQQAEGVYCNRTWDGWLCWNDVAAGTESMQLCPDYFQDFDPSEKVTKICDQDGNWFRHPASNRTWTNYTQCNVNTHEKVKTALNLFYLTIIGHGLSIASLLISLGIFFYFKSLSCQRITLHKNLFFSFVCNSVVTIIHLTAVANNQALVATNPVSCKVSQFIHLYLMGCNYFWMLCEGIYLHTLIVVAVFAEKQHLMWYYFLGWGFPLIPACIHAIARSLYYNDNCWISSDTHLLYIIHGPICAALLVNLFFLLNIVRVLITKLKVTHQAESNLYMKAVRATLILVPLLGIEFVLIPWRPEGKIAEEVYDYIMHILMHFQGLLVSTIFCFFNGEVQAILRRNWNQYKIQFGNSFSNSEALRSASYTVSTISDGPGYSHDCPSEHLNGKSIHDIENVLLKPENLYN
T2 sequence (O60895 43-175): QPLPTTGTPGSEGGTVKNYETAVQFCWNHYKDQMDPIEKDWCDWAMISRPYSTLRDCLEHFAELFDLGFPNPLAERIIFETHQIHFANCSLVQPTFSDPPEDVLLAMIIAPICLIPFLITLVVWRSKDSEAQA
T1 sequence (Q16602 23-461): as the sequence (Q16602 23-461) above
T1 sequence (O60894 27-148): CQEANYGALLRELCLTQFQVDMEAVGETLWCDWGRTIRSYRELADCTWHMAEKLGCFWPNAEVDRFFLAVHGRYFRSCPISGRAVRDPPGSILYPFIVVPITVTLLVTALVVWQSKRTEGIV

| Compound | CLR/RAMP1 Max Activity % of positive control [3] | CLR/RAMP2 Max Activity % of positive control [4] | further results |
| --- | --- | --- | --- |
| PEG2000-K[PAL]VQKLAHQIYQFTDKDSAPVDPSSPHSY-NH2 [SEQ ID NO: 191] |  |  | CLR/RAMP1 Max Activity % of positive control (antagonist) [1]: 98 % of positive control; CLR/RAMP2 Max Activity % of positive control (antagonist) [2]: 101 % of positive control |
| Human β-CGRP [Wild type CGRP-β positive, reference compound] | 100 % of positive control |  |  |
| miniPEG-K(PAL)GCRFGTCTVQKLAHQIYQFTDKDKDSAPVDPSSPHSY-NH2 [SEQ ID NO: 46] | 60 % of positive control | 104 % of positive control |  |
| miniPEG-K(PAL)GCRFGTCTVQKLAHQIYQFTDKDKDNVAPVDPSSPHSY-NH2 [SEQ ID NO: 50] | 65 % of positive control | 87 % of positive control |  |
| miniPEG-K(PAL)TKKTLRTGCRFGTCTVQKLAHQIYQFTDKDKDNVAPRSKISPQGY-NH2 [SEQ ID NO: 70] | 69 % of positive control | 68 % of positive control |  |
| miniPEG-K(PAL)GCRFGTCTVQKLAHQIYQFTDKDVAPR(D-Ser)KISPQGY-NH2 [SEQ ID NO: 213] | 115 % of positive control | 107 % of positive control |  |
| Ace-PEG3-K(Hexadecanoyl-PEG3-isoGlu)GCRFGTCTVQKLAHQIYQFTDKDKDNVAPRSKISPQGY-NH2 [SEQ ID NO: 154] | 83 % of positive control | 112 % of positive control |  |
| Pal-KVQKLNFVPTNVGSKAF-NH2 [SEQ ID NO: 142] |  |  | CLR/RAMP1 Max Activity % of positive control (antagonist) [1]: 100 % of positive control; CLR/RAMP2 Max Activity % of positive control (antagonist) [2]: 80 % of positive control |
| AcePEG3--K([17-carboxy-heptadecanoyl]-isoGlu-Peg3-Peg3)GCRFGTCTVQKLAHQIYQFTDKDKDNVAPRSKISPQGY-NH2 [SEQ ID NO: 158] | 95 % of positive control | 113 % of positive control |  |
| Ace-PEG3-K([19-carboxy-nonadecanoyl]-isoGlu)GCRFGTCTVQKLAHQIYQFTDKDKDNVAPRSKISPQGY-NH2 [SEQ ID NO: 155] | 81 % of positive control | 95 % of positive control |  |
| Ace-PEG3-K(Hexadecanoyl-isoGlu-PEG3-PEG3)GCRFGTCTVQKLAHQIYQFTDKDKDNVAPRSKISPQGY-NH2 [SEQ ID NO: 153] | 78 % of positive control | 108 % of positive control |  |
| miniPEG-K(PAL)GCRFGTCTVQKLAHQIYQFTDKGRQDSAPVDPSSPHSY-NH2 [SEQ ID NO: 68] |  | 70 % of positive control |  |
| miniPEG-K(PAL)GCRFGTCT(D-Val)QKLAHQIYQFTDKDVAPRSKISPQGY-NH2 [SEQ ID NO: 211] | 91 % of positive control | 22 % of positive control | receptor selectivity of agonists, in words [4]: CLR/RAMP2-selective |
| Ace-FGCRFGTCTVQKLAHQIYQFTDKDKDNVAPRSKISPQGY-NH2 [SEQ ID NO: 53, reference compound] | 69 % of positive control | 102 % of positive control | agonistic potency for CLR/RAMP1 and/or CLR/RAMP2 receptors, in words ([3]; CLR/RAMP1 and/or CLR/RAMP2): low potency ligands |
| Ace-PEG3-K([19-carboxy-nonadecanoyl]-isoGlu-PEG3)GCRFGTCTVQKLAHQIYQFTDKDVAPRSKISPQGY-NH2 [SEQ ID NO: 159] | 90 % of positive control | 60 % of positive control |  |
| Pyr(glu)-LYENKPRRPYIL-miniPEG-K(PAL)GCRFGTCTVQKLAHQIYQFTDKDVAPRSKISPQGY-NH2 [SEQ ID NO: 223] | 102 % of positive control | 70 % of positive control |  |

| Compound | CLR/RAMP1 Max Activity % of positive control [3] | CLR/RAMP2 Max Activity % of positive control [4] | further results |
| --- | --- | --- | --- |
| Ace-PEG12-PEG12-K([19-carboxy-nonadecanoyl]-isoGlu-PEG3)GCRFGTCTVQKLAHQIYQFTDKDKDNVAPRSKISPQGY-NH2 [SEQ ID NO: 150] | 94 % of positive control | 60 % of positive control |  |
| CSCC[C@H](NC(=O)CNC(=O)CNC(=O)[C@H](CO)NC(=O)[C@H](CCCNC(=N)N)NC(=O)[C@H](CO)NC(=O)[C@H](CC(C)C)NC(=O)[C@H](CC(C)C)NC(=O)CNC(=O)[C@H](C)NC(=O)[C@H](CC(C)C)NC(=O)[C@H](CCCNC(=N)N)NC(=O)[C@H](Cc1c[nH]cn1)NC(=O)[C@@H](NC(=O)[C@@H](NC(=O)[C@@H]1CSSC[C@H](NC(=O)[C@H](C)N)C(=O)N[C@@H](CC(N)=O)C(=O)N[C@@H]([C@@H](C)O)C(=O)N[C@@H](C)C(=O)N[C@@H]([C@@H](C)O)C(=O)N1)C(C)C)[C@@H](C)O)C(=O)N[C@H](C(=O)N[C@@H](CCCCN)C(=O)N[C@@H](CO)C(=O)N[C@@H](CC(N)=O)C(=O)N[C@@H](Cc1ccccc1)C(=O)N[C@H](C(=O)N1CCC[C@H]1C(=O)N[C@H](C(=O)N[C@@H](CC(N)=O)C(=O)N[C@H](C(=O)NCC(=O)N[C@@H](CO)C(=O)N[C@@H](CCCCN)C(=O)N[C@@H](C)C(=O)N[C@@H](Cc1ccccc1)C(N)=O)C(C)C)[C@@H](C)O)C(C)C)C(C)C [SEQ ID NO: 143, reference compound] | 103 % of positive control |  |  |
| Ace-PEG3-K([19-carboxy-nonadecanoyl]-isoGlu-Peg3-Peg3)GCRFGTCTVQKLAHQIYQFTDKDKDNVAPRSKISPQGY-NH2 [SEQ ID NO: 157] | 100 % of positive control | 95 % of positive control |  |
| Ace-PEG3-K(Hexadecanoyl-isoGlu)GCRFGTCTVQKLAHQIYQFTDKDKDNVAPRSKISPQGY-NH2 [SEQ ID NO: 151] | 85 % of positive control | 134 % of positive control |  |
| miniPEG-K(PAL)GCRFGTCTVQKLAHQIYQFTDKDKDNVDPSSPHSY-NH2 [SEQ ID NO: 94] | 67 % of positive control | 82 % of positive control | receptor selectivity of agonists, in words [4]: CLR/RAMP2-selective |
| miniPEG-K(PAL)GCRFGTCTVQKLAHQIYQFTDKDKSAPVDPSSPHSY-NH2 [SEQ ID NO: 47] | 85 % of positive control | 64 % of positive control |  |
| Ace-PEG3-K(Hexadecanoyl-isoGlu-PEG3)GCRFGTCTVQKLAHQIYQFTDKDKDNVAPRSKISPQGY-NH2 [SEQ ID NO: 152] | 80 % of positive control | 132 % of positive control |  |
| miniPEG-K(PAL)GCRFGTCTVQKLAHQIYQFTDKDVAPRSKISP(D-Gln)GY-NH2 [SEQ ID NO: 214] | 112 % of positive control | 99 % of positive control | receptor selectivity of agonists, in words [4]: CLR/RAMP2-selective |
| miniPEG-K(PAL)GCRFGTCTVQKLAHQIYQFTDKDKDNVAPRSKSSPHSY-NH2 [SEQ ID NO: 61] | 70 % of positive control | 92 % of positive control |  |
| miniPEG-K(PAL)GCRFGTCTVQKLAHQIYQFTDKDKQDSAPVDPSSPHSY-NH2 [SEQ ID NO: 51] | 65 % of positive control | 107 % of positive control |  |
| Ace-RPKPQQFFGLM-miniPEG-K(PAL)GCRFGTCTVQKLAHQIYQFTDKDSAPVDPSSPHSY-NH2 [SEQ ID NO: 147] | 109 % of positive control | 90 % of positive control |  |
| miniPEG-K(PAL)GCRFGTC(D-Thr)VQKLAHQIYQFTDKDVAPRSKISPQGY-NH2 [SEQ ID NO: 210] | 77 % of positive control | 47 % of positive control | receptor selectivity of agonists, in words [4]: CLR/RAMP2-selective |
| Ace-PEG3-K([19-carboxy-nonadecanoyl]-PEG3-isoGlu)GCRFGTCTVQKLAHQIYQFTDKDKDNVAPRSKISPQGY-NH2 [SEQ ID NO: 156] | 88 % of positive control | 91 % of positive control |  |
| miniPEG-K(PAL)CRFGTCTVQKLAHQIYQFTDKDKDNSAPVDPSSPHSY-NH2 [SEQ ID NO: 43] | 39 % of positive control | 30 % of positive control |  |
| miniPEG-TK(Pal)KTLRTGCRFGTCTVQKLAHQIYQFTDKDKDNVAPVDPSSPHSY-NH2 [SEQ ID NO: 42] | 56 % of positive control | 76 % of positive control |  |
